Results reported in patent US11440923B2, “Substituted macrocyclic indole derivatives” (Bayer Aktiengesellschaft, priority 2017, dated 2022).
pIC50: −log10 of the molar value. Where a name gives a salt, the structure may show the parent alone. Read-outs that look alike come from different tables or passages of the source.

Tests used:
BCL-XL = BCL-XL (Homo sapiens (Human), UniProt Q07817); assay: Protein-protein interaction assay BCL-XL/Bad BH3 peptide (BCL-XL assay, TR-FRET); format: binding; conditions: read-out: BCL-XL Assay IC50 (median)
Chain of BCL-XL (Q07817 1-212): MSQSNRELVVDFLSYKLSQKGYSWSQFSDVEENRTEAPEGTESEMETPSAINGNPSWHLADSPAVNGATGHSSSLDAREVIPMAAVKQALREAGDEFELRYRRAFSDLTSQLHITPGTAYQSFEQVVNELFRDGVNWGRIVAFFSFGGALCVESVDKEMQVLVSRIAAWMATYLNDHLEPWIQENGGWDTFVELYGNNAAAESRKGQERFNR
Summary of the method: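 Human BCL-XL (aa 1-212, C-terminal His6, E. coli) at 1 nM end concentration, preincubated 10 min at 22 °C with compound (11 concentrations, 0.1 nM–20 μM, duplicates), then biotinylated Bad BH3 peptide (1 nM) added with anti-His-Eu cryptate/streptavidin-XL665. Incubation 1 h at 22 °C then overnight at 4 °C; TR-FRET 665/620 ratio, IC50 from 4-parameter fit.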

SUDHL5 cells = assay: Induction of cytotoxicity in SUDHL5 cells (Assay 6); format: cell-based
Summary of the method: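 Overnight seeding, 37 °C; 5 h compound exposure; CellTiter-Glo, 15 min RT shake; luminescence read. No-cell medium control.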

[1] = 5 h, CellTiter-Glo; read-out: Cytotox SUDHL5 IC50 (median)
[2] = Homo sapiens, SU-DHL-5, 5 h, 5 h, CellTiter-Glo; read-out: Cytotox SUDHL5 IC50 (median)

pIC50 (BCL-XL) | SMILES | pIC50 (SUDHL5 cells; [1]) | pIC50 (SUDHL5 cells; [2]) | pIC50 (SUDHL5 cells; read-out: Cytotox SUDHL5 IC50 (median); 5 h, CellTiter-Glo)
4.88 | CCc1c2c(nn1C)C(CCC(C)(C)O)OCCCCn1c(C(=O)O)c(CCCOc3cccc4cc(F)ccc34)c3ccc(Cl)c-2c31 (racemic) [Example 74, (rac)-4-chloro-3-ethyl-7-{3-[(6-fluoronaphthalen-1-yl)oxy]propyl}-(15-rac)-(3-hydroxy-3-methylbutyl)-2-methyl-2,10,11,12,13,15-hexahydropyrazolo[4′,3′:9,10][1,6]oxazacycloundecino[8,7,6-hi]indole-8-carboxylic Acid] |  | 7.29 | 
4.86 | Cc1c2c(nn1C)C(C1CC1)OCCCCn1c(C(=O)O)c(CCCOc3cccc4ccccc34)c3ccc(Cl)c-2c31 (single isomer, unassigned; enantiomer 2) [Example 36, (−)-4-chloro-15-cyclopropyl-2,3-dimethyl-7-{3-[(naphthalen-1-yl)oxy]propyl}-2,10,11,12,13,15-hexahydropyrazolo[4′,3′:9,10][1,6]oxazacycloundecino[8,7,6-hi]indole-8-carboxylic Acid N-ethylethanamine Salt (Enantiomer 2)] | 4.68 |  | 
< 4.70 | Cc1c2c(nn1C)C(CCN1CCOCC1)OCCCCn1c(C(=O)O)c(CCCOc3cccc4ccccc34)c3ccc(Cl)c-2c31 (single isomer, unassigned; enantiomer 2) [Example 15, 4-chloro-2,3-dimethyl-15-[2-(morpholin-4-yl)ethyl]-7-{3-[(naphthalen-1-yl)oxy]propyl}-2,10,11,12,13,15-hexahydropyrazolo[4′,3′:9,10][1,6]oxazacycloundecino[8,7,6-hi]indole-8-carboxylic Acid (Enantiomer 2)] | 5.60 |  | 
< 4.70 | Cc1c2c(nn1C)C(C)OCCCCn1c(C(=O)O)c(CCCOc3cccc4ccccc34)c3cccc-2c31 (single isomer, unassigned; stereoisomer 2) [Example 3, 2,3,15-trimethyl-7-[3-(naphthalen-1-yloxy)propyl]-2,10,11,12,13,15-hexahydropyrazolo[4′,3′:9,10][1,6]oxazacycloundecino[8,7,6-hi]indole-8-carboxylic Acid Trifluoroacetic Acid Salt (Stereoisomer 2)] |  |  | < 4.48
< 4.70 | CCc1c2c(nn1C)C(C(F)(F)F)OCCCCn1c(C(=O)O)c(CCCOc3cccc4ccccc34)c3ccc(Cl)c-2c31 (racemic) [Example 27, (rac)-4-Chloro-3-ethyl-2-methyl-7-{3-[(naphthalen-1-yl)oxy]propyl}-15-(trifluoromethyl)-2,10,11,12,13,15-hexahydropyrazolo[4′,3′:9,10][1,6]oxazacycloundecino[8,7,6-hi]indole-8-carboxylic Acid] |  | 5.72 | 
4.88 | CCc1c2c(nn1C)C(Cc1ccccc1)OCCCCn1c(C(=O)O)c(CCCOc3cccc4cc(F)ccc34)c3ccc(Cl)c-2c31 (racemic) [Example 92, (rac)-(rac-15)-benzyl-4-chloro-3-ethyl-7-{3-[(6-fluoro-1-naphthyl)oxy]propyl}-2-methyl-2,10,11,12,13,15-hexahydropyrazolo[4′,3′:9,10][1,6]oxazacycloundecino[8,7,6-hi]indole-8-carboxylic Acid] |  | 5.92 | 
< 4.70 | CCc1c2c(nn1C)C(C1CC1)OCCCCn1c(C(=O)O)c(CCCOc3cccc4cc(F)ccc34)c3ccc(Cl)c-2c31 (racemic) [Example 38, (rac)-4-chloro-(15-rac)-cyclopropyl-3-ethyl-7-{3-[(6-fluoronaphthalen-1-yl)oxy]propyl}-2-methyl-2,10,11,12,13,15-hexahydropyrazolo[4′,3′:9,10][1,6]oxazacycloundecino[8,7,6-hi]indole-8-carboxylic Acid] |  | 5.82 | 
< 4.70 | Cc1c2c(nn1C)C(CCN1CCOCC1)OCCCCn1c(C(=O)O)c(CCCOc3cccc4ccccc34)c3ccc(Cl)c-2c31 (single isomer, unassigned; enantiomer 1) [Example 14, 4-chloro-2,3-dimethyl-15-[2-(morpholin-4-yl)ethyl]-7-{3-[(naphthalen-1-yl)oxy]propyl}-2,10,11,12,13,15-hexahydropyrazolo[4′,3′:9,10][1,6]oxazacycloundecino[8,7,6-hi]indole-8-carboxylic Acid (Enantiomer 1)] | 7.64 |  | 
< 4.70 | CCc1c2c(nn1C)C(CCO)OCCCCn1c(C(=O)O)c(CCCOc3cccc4cc(F)ccc34)c3ccc(Cl)c-2c31 (single isomer, unassigned; enantiomer 1) [Example 45, (+)-4-chloro-3-ethyl-7-{3-[(6-fluoronaphthalen-1-yl)oxy]propyl}-15-(2-hydroxyethyl)-2-methyl-2,10,11,12,13,15-hexahydropyrazolo[4′,3′:9,10][1,6]oxazacycloundecino[8,7,6-hi]indole-8-carboxylic Acid (Enantiomer 1)] | 7.12 |  | 

Further lines, the compound ahead of its results:

SMILES | pIC50 (BCL-XL) | pIC50 (SUDHL5 cells; [1]) | pIC50 (SUDHL5 cells; [2]) | pIC50 (SUDHL5 cells; read-out: Cytotox SUDHL5 IC50 (median); 5 h, CellTiter-Glo)
CCC1OCCCCn2c(C(=O)O)c(CCCOc3cccc4ccccc34)c3ccc(Cl)c(c32)-c2c1nn(C)c2C (single isomer, unassigned; enantiomer 2) [Example 30, (−)-4-chloro-15-ethyl-2,3-dimethyl-7-{3-[(naphthalen-1-yl)oxy]propyl}-2,10,11,12,13,15-hexahydropyrazolo[4′,3′:9,10][1,6]oxazacycloundecino[8,7,6-hi]indole-8-carboxylic Acid—N-ethylethanamine Salt (Enantiomer 2)] | < 4.70 | 4.54 |  | 
CCc1c2c(nn1C)C(CCN1CCOCC1)OCCCCn1c(C(=O)O)c(CCCOc3cccc4ccccc34)c3ccc(F)c-2c31 (single isomer, unassigned; enantiomer 2) [Example 12, 3-ethyl-4-fluoro-2-methyl-15-[2-(morpholin-4-yl)ethyl]-7-{3-[(naphthalen-1-yl)oxy]propyl}-2,10,11,12,13,15-hexahydropyrazolo[4′,3′:9,10][1,6]oxazacycloundecino[8,7,6-hi]indole-8-carboxylic Acid—N-ethylethanamine Salt (Enantiomer 2)] | < 4.70 | 5.48 |  | 
CCc1c2c(nn1C)C(CCN1CCC(F)(F)C1)OCCCCn1c(C(=O)O)c(CCCOc3cccc4cc(F)ccc34)c3ccc(Cl)c-2c31 (racemic) [Example 55, (rac)-4-chloro-(15-rac)-[2-(3,3-difluoropyrrolidin-1-yl)ethyl]-3-ethyl-7-{3-[(6-fluoronaphthalen-1-yl)oxy]propyl}-2-methyl-2,10,11,12,13,15-hexahydropyrazolo[4′,3′:9,10][1,6]oxazacycloundecino[8,7,6-hi]indole-8-carboxylic acid—2-hydroxypropane-1,2,3-tricarboxylic Acid Salt] | < 4.70 |  | 7.39 | 
Cc1c2c(nn1C)C(CCN1CCOCC1)OCCCCn1c(C(=O)O)c(CCCOc3cccc4cc(F)ccc34)c3ccc(Cl)c-2c31 (single isomer, unassigned; enantiomer 1) [Example 17, 4-chloro-7-{3-[(6-fluoronaphthalen-1-yl)oxy]propyl}-2,3-dimethyl-15-[2-(morpholin-4-yl)ethyl]-2,10,11,12,13,15-hexahydropyrazolo[4′,3′:9,10][1,6]oxazacycloundecino[8,7,6-hi]indole-8-carboxylic Acid—N-ethylethanamine (Enantiomer 1)] | < 4.70 |  | 7.96 | 
CCc1c2c(nn1C)C(CCN1CCOCC1)OCCCCn1c(C(=O)O)c(CCCOc3cccc4ccccc34)c3ccc(F)c-2c31 (racemic) [Example 10, (rac)-3-ethyl-4-fluoro-2-methyl-15-[2-(morpholin-4-yl)ethyl]-7-[3-(naphthalen-1-yloxy)propyl]-2,10,11,12,13,15-hexahydropyrazolo[4′,3′:9,10][1,6]oxazacycloundecino[8,7,6-hi]indole-8-carboxylic Acid] | < 4.70 |  | 6.85 | 
Cc1c2c(nn1C)C(CCN1CCOCC1)OCCCCn1c(C(=O)O)c(CCCOc3cccc4cc(F)ccc34)c3ccc(F)c-2c31 (racemic) [Example 19, (rac)-4-fluoro-7-{3-[(6-fluoronaphthalen-1-yl)oxy]propyl}-2,3-dimethyl-15-[2-(morpholin-4-yl)ethyl]-2,10,11,12,13,15-hexahydropyrazolo[4′,3′:9,10][1,6]oxazacycloundecino[8,7,6-hi]indole-8-carboxylic Acid] | < 4.70 |  | 7.09 | 
CCc1c2c(nn1C)C(CC(C)(C)O)OCCCCn1c(C(=O)O)c(CCCOc3cccc4cc(F)ccc34)c3ccc(Cl)c-2c31 (single isomer, unassigned; enantiomer 21) [Example 54, (−)-4-chloro-3-ethyl-7-{3-[(6-fluoronaphthalen-1-yl)oxy]propyl}-15-(2-hydroxy-2-methylpropyl)-2-methyl-2,10,11,12,13,15-hexahydropyrazolo[4′,3′:9,10][1,6]oxazacycloundecino[8,7,6-hi]indole-8-carboxylic Acid—N-ethylethanamine Salt (Enantiomer 21] | 4.84 | 5.03 |  | 
